In paper PMC2551583, “Optimizing bioavailability of oral administration of small peptides through pharmacokinetic and pharmacodynamic parameters: The effect of water and timing of meal intake on oral delivery of Salmon Calcitonin” (BMC Clinical Pharmacology, 2008):

Test: Plasma sCT pharmacokinetics after a single dose, phase I crossover study
Format: in vivo, healthy postmenopausal women
Description: The study was a randomized, partially-blind, placebo-controlled, single dose, exploratory crossover study to assess the PK and PD of 0.8 mg SMC021 in healthy postmenopausal women when taken in the morning with different volumes of water (50 or 200 ml) and at different times before a meal (10, 30, or 60 minutes). Subjects were blinded to treatment with SMC021 and placebo, but were not blinded to water volume intake and pre-meal dosing time. The PK and PD profiles of Miacalcic® 200 IU NS were additionally assessed in an open-label manner in a small subset of subjects.
Females fulfilling the inclusion criteria of being generally healthy ambulatory female volunteers, aged between 40–70 years and having passed a natural or surgically-induced menopause at least 5 years before entering the study and being without diseases or medications known to affect bone metabolism were allowed to participate. The study was of a 5-period, 10-treatment, 56-sequence crossover design. Subjects were randomly allocated to a sequence. The study contained 10 possible treatments, comprising a combination of study medication of SMC021, placebo, and Miacalcic® NS), water volume given with the tablet (50/200 ml water, and dosing time to meal (10, 30 or 60 minutes pre-meal) as outlined in Table 1. To reduce the burden of treatment to the subjects, an incomplete cross-over design was used. […]
The concentration of plasma sCT was measured by as chemiluminescence-based assay that previously have been described. Values measured below the lower limit of quantification of 2.5 pg/ml was assigned the value of 2.5 pg/ml. […] The lower limit of quantification (LLOQ) was 2.5 pg/mL. The quality control (QC) samples, ranging from 2.5 pg/mL to 700 pg/mL, were prepared daily and measured in 3 to 5 replicates. The overall accuracy and precision (CV) of QC samples, measured on 11 different days was 101.3% and 10.1% for 2.5 pg/mL concentration and 94.3% and 6.0% for 700 pg/mL concentration, respectively. […]

time to maximum plasma sCT concentration after drug intake (minimal if any effect of water and meal time): approximately 15 minutes
fold sCT AUC0–4 with 50 ml of water versus nasal calcitonin (oral 0.8 mg with 50 ml water vs 200 IU nasal spray): 4 fold
fold higher absorption of sCT with 50 ml as compared with 200 ml of water (oral 0.8 mg, Cmax and AUC0–4, irrespective of meal timing (10, 30, 60 min)): two-fold increase
Substance: salmon calcitonin [sCT]
